Data published in patent EP2033962A1, “Tetracyclic indolopyridines as EG5 inhibitors” (4SC AG, priority 2007, dated 2009).

Tested on: RKO p27 uninduced (proliferating)
Test: Alamar Blue cell viability assay, anti-proliferative / cytotoxic activity on proliferating cells
Type: cell-based
Conditions: Homo sapiens, RKOp27; RKO colon cancer cells, absence of the inducer Ponasterone A, 72 hours incubation; read-out: -log EC50 [mol/l] RKO p27 uninduced (proliferating) (converted)
Method: The anti-proliferative / cytotoxic activity of the compounds described herein can be tested on subclones of RKO human colon adenocarcinoma cells (Schmidt et al., Oncogene 19, 2423-2429; 2000) using the Alamar Blue cell viability assay (described in O'Brien et al. Eur J Biochem 267, 5421-5426, 2000). The compounds are dissolved as 10 mM solutions in DMSO and subsequently diluted in semi-logarithmic steps. DMSO dilutions are further diluted 1:100 v:v into Dulbecco's modified Eagle's medium (DMEM) containing 10% fetal calf serum to a final concentration twice as much as the final concentration in the test. RKO subclones are seeded into 96 well flat bottom plates at a density of 4000 cells per well in a volume of 50 µl per well. 24 hours after seeding the 50 µl each of the compound dilutions in DMEM medium are added into each well of the 96 well plate. Each compound dilution is tested as triplicates. Wells containing untreated control cells are filled with 50 µl DMEM medium containing 1% DMSO. The cells are then incubated with the substances for 72 hours at 37°C in a humidified atmosphere containing 5% carbon dioxide. To determine the viability of the cells, 10 µl of an Alamar Blue solution (Biosource) are added and the fluorescence is measured at an extinction of 544 nm and an emission of 590 nm. For the calculation of the cell viability the emission value from untreated cells is set as 100% viability and the emission rates of treated cells are set in relation to the values of untreated cells. Viabilities are expressed as % values. The Graphpad Prism program is used for the calculation of EC50 values for anti-proliferative / cytotoxic activity out of the obtained dose-response curves.
To determine the cell cycle specific mode of action, subclones of RKO colon adenocarcinoma cells (RKOp21 or RKOp27 as described by Schmidt et al. in Oncogene 19, 2423-2429; 2000) are seeded into 96 well flat bottom plates at a density of 16000 cells per well in a volume of 50 µl per well in DMEM growth medium with 10% FCS containing 10 µM Ponasterone A. 24 hours after seeding the 50 µl each of the compound dilutions in DMEM medium are added into each well of the 96-well plate. Each compound dilution is tested as triplicates. Wells containing untreated control cells are filled with 50 µl DMEM medium containing 1% DMSO. The cells are then incubated with the substances for 72 hours at 37°C in a humidified atmosphere containing 5% carbon dioxide. To determine the viability of the cells, 10 µl of an Alamar Blue solution (Biosource) are added and the fluorescence is measured at an extinction of 544 nm and an emission of 590 nm. For the calculation of the cell viability the emission value from untreated cells is set as 100% viability and the emission rates of treated cells are set in relation to the values of untreated cells. Viabilities are expressed as % values. The Graphpad Prism program (GraphPad Software, Inc) is used for the calculation of EC50 values out of the obtained dose-response curves. Viability is compared of proliferating cells grown in the absence of the inducer Ponasterone A, versus viability of cells arrested by the expression of ectopic p27Kip1 induced by Ponasterone A.

Row | Structure (SMILES) | EC50
1 | COc1ccc2[nH]c3c(c2c1)C[C@@]1(C)C(=O)N(CCNC(C)C)CC(=O)N1[C@@H]3c1cccc(O)c1 (racemic) [Example 25, (6RS,12aSR)-6-(3-Hydroxy-phenyl)-2-(2-isopropylamino-ethyl)-10-methoxy-12a-methyl-2,3,6,7,12,12a-hexahydro-pyrazino[1',2':1,6]pyrido[3,4-b]indole-1,4-dione] | ≤ 100 nM
2 | COc1ccc2[nH]c3c(c2c1)C[C@@]1(C)C(=O)N(CCN2CCOCC2)CC(=O)N1[C@@H]3c1cccc(O)c1 (racemic) [Example 13, (6RS,12aSR)-6-(3-Hydroxy-phenyl)-10-methoxy-12a-methyl-2-(2-morpholin-4-yl-ethyl)-2,3,6,7,12,12a-hexahydro-pyrazino[1',2':1,6]pyrido[3,4-b]indole-1,4-dione] | 100 to 1000 nM
3 | COc1ccc2[nH]c3c(c2c1)C[C@@]1(C)C(=O)N(CCN2CCCC2)CC(=O)N1[C@@H]3c1cccc(O)c1 (racemic) [Example 9, (6RS,12aSR)-6-(3-Hydroxy-phenyl)-10-methoxy-12a-methyl-2-(2-pyrrolidin-1-yl-ethyl)-2,3,6,7,12,12a-hexahydro-pyrazino[1',2':1,6]pyrido[3,4-b]indole-1,4-dione] | ≤ 100 nM
4 | COc1ccc2[nH]c3c(c2c1)C[C@@]1(C)C(=O)N(C)CC(=O)N1[C@@H]3c1cccc(O)c1 (racemic) [Example 10, (6RS,12aSR)-6-(3-Hydroxy-phenyl)-10-methoxy-2,12a-dimethyl-2,3,6,7,12,12a-hexahydro-pyrazino[1',2':1,6]pyrido[3,4-b]indole-1,4-dione] | 100 to 1000 nM
5 | COc1ccc2[nH]c3c(c2c1)C[C@@]1(C)C(=O)N(CCN(C(C)C)C(C)C)CC(=O)N1[C@@H]3c1cccc(O)c1 (racemic) [Example 19, (6RS,12aSR)-2-(2-Diisopropylamino-ethyl)-6-(3-hydroxy-phenyl)-10-methoxy-12a-methyl-2,3,6,7,12,12a-hexahydro-pyrazino[1',2':1,6]pyrido[3,4-b]indole-1,4-dione] | ≤ 100 nM
6 | CCN(CC)CCCN1CC(=O)N2[C@H](c3cccc(O)c3)c3[nH]c4ccc(OC)cc4c3C[C@@]2(C)C1=O (racemic) [Example 16, (6RS,12aSR)-2-(3-Diethylamino-n-propyl)-6-(3-hydroxy-phenyl)-10-methoxy-12a-methyl-2,3,6,7,12,12a-hexahydro-pyrazino[1',2':1,6]pyrido[3,4-b]indole-1,4-dione] | ≤ 100 nM
7 | O=C1[C@@H]2Cc3c([nH]c4ccccc34)[C@@H](c3cccc(O)c3)N2C(=O)CN1CCN1CCCC1 (racemic) [Example 6, (6RS,12aSR)-6-(3-Hydroxy-phenyl)-2-(2-pyrrolidin-1-yl-ethyl)-2,3,6,7,12,12a-hexahydro-pyrazino[1',2':1,6]pyrido[3,4-b]indole-1,4-dione] | 100 to 1000 nM
8 | COc1ccc2[nH]c3c(c2c1)C[C@@]1(C)C(=O)N(CCCN2CCOCC2)CC(=O)N1[C@@H]3c1cccc(O)c1 (racemic) [Example 14, (6RS,12aSR)-6-(3-Hydroxy-phenyl)-10-methoxy-12a-methyl-2-(3-morpholin-4-yl-n-propyl)-2,3,6,7,12,12a-hexahydro-pyrazino[1',2':1,6]pyrido[3,4-b]indole-1,4-dione] | 100 to 1000 nM
9 | COc1ccc2[nH]c3c(c2c1)C[C@@]1(C)C(=O)N(CCCN2CCCCC2)CC(=O)N1[C@@H]3c1cccc(O)c1 (racemic) [Example 27, (6RS,12aSR)-6-(3-Hydroxy-phenyl)-10-methoxy-12a-methyl-2-(3-piperidin-1-yl-n-propyl)-2,3,6,7,12,12a-hexahydro-pyrazino[1',2':1,6]pyrido[3,4-b]indole-1,4-dione] | 100 to 1000 nM
10 | COc1ccc2[nH]c3c(c2c1)C[C@@]1(C)C(=O)N(CCCN2CCCC2)CC(=O)N1[C@@H]3c1cccc(O)c1 (racemic) [Example 28, (6RS,12aSR)-6-(3-Hydroxy-phenyl)-10-methoxy-12a-methyl-2-(3-pyrrolidin-1-yl-n-propyl)-2,3,6,7,12,12a-hexahydro-pyrazino[1',2':1,6]pyrido[3,4-b]indole-1,4-dione] | 100 to 1000 nM
11 | CCN(CC)CCN1CC(=O)N2[C@H](c3cccc(O)c3)c3[nH]c4ccc(OC)cc4c3C[C@@]2(C)C1=O (racemic) [Example 15, (6RS,12aSR)-2-(2-Diethylamino-ethyl)-6-(3-hydroxy-phenyl)-10-methoxy-12a-methyl-2,3,6,7,12,12a-hexahydro-pyrazino[1',2':1,6]pyrido[3,4-b]indole-1,4-dione] | 100 to 1000 nM
12 | COc1ccc2[nH]c3c(c2c1)C[C@@]1(C)C(=O)N(CCN(C)C)CC(=O)N1[C@@H]3c1cccc(O)c1 (racemic) [Example 8, (6RS,12aSR)-2-(2-Dimethylamino-ethyl)-6-(3-hydroxy-phenyl)-10-methoxy-12a-methyl-2,3,6,7,12,12a-hexahydro-pyrazino[1',2':1,6]pyrido[3,4-b]indole-1,4-dione] | ≤ 100 nM
13 | O=C1[C@@H]2Cc3c([nH]c4ccccc34)[C@@H](c3cccc(O)c3)N2C(=O)CN1CCN1CCCCC1 (racemic) [Example 7, (6RS,12aSR)-6-(3-Hydroxy-phenyl)-2-(2-piperidin-1-yl-ethyl)-2,3,6,7,12,12a-hexahydro-pyrazino[1',2':1,6]pyrido[3,4-b]indole-1,4-dione] | 100 to 1000 nM
14 | COc1ccc2[nH]c3c(c2c1)C[C@@]1(C)C(=O)N(CCCN(C)C)CC(=O)N1[C@@H]3c1cccc(O)c1 (racemic) [Example 12, (6RS,12aSR)-2-(3-Dimethylamino-n-propyl)-6-(3-hydroxy-phenyl)-10-methoxy-12a-methyl-2,3,6,7,12,12a-hexahydro-pyrazino[1',2':1,6]pyrido[3,4-b]indole-1,4-dione] | ≤ 100 nM
15 | COc1ccc2[nH]c3c(c2c1)C[C@@]1(C)C(=O)N(CCN2CCCCC2)CC(=O)N1[C@@H]3c1cccc(O)c1 (racemic) [Example 11, (6RS,12aSR)-6-(3-Hydroxy-phenyl)-10-methoxy-12a-methyl-2-(2-piperidin-1-yl-ethyl)-2,3,6,7,12,12a-hexahydro-pyrazino[1',2':1,6]pyrido[3,4-b]indole-1,4-dione] | ≤ 100 nM
